pIC50: −log10 of the molar value.
Legend:
SRC = molecular target: T1, SRC (Homo sapiens, UniProt P12931); assay: Src transphosphorylation assay; assay type: biochemical; conditions: recombinant human Src, poly(Glu-Tyr) substrate
T1 construct: purchased UBI 14-117
Procedure: Src Transphosphorylation Assay
This assay is used to screen for inhibitors of the tyrosine kinase Src.
1. Coating buffer: PBS containing sodium azide (0.2 mg/ml).
3. Wash buffer: PBS containing 0.05% v/v Tween 20 (PBS-TWEEN)
5. ATP (40 [M)+MgCl2 (80 mM) in distilled water.
6. MgCl2 (80 mM) in distilled water (for no ATP blanks).
7. Test compounds, 10 mM in DMSO.
8. Assay Buffer: 100 mM HEPES, pH 7.4, containing 2 mM DTT, 0.2 mM sodium orthovanadate and 0.2 mgs/ml BSA.
9. Partially purified recombinant human Src (UBI (14-117)
10. Anti-phosphotyrosine (SUGEN rabbit polyclonal anti-PY).
11. HRP-linked goat anti-rabbit Ig (Biosource International #6430)
12. HRP substrate ABTS or Pierce Peroxidase substrate.
13. Corning ELISA plates.
1. Coat plates with 100 μl of 20 μg/ml poly(Glu-Tyr) (Sigma Cat. No.P0275) containing 0.01% sodium azide. Hold overnight at 4° C.
2. Block with 1% BSA at 100 μl/well for one hour at room temperature.
3. Plate test compounds (10 mM in DMSO) at 2 ul/well on a Costar plate ready for dilution with dH2O and plating to reaction plates.
4. Dilute Src kinase 1:10,000 in Reaction Buffer, for 5 plates prepare 25 ml as follows: 2.5 mls 1M HEPES pH7.4 (stored sterile at 4° C.), 21.85 ml distilled water, 0.1 ml 5% BSA, 0.5 ml 10 mM sodium orthovanadate (stored sterile at 4° C.), 50 μl 1.0M DTT (stored frozen at […]), and 2.5 μl Src Kinase (stored frozen at −80° C.).
5. Add 48 μl of distilled water to the 2 ∥l of each compound in the dilution plate then add 25 μl/well of this to the reaction plate.
6. Add 50 μl of […] to each reaction buffer well and then 25 μl ATP-MgCl2/well (MgCl2 only to no ATP blanks). Incubate at room temperature for 15 minutes on plate shaker. Stop reaction by adding 25 μl of 0.5M EDTA to each well.
7. Wash 4× with PBS-TWEEN.
8. […] Incubate with continuous shaking at room temperature for one hour.
9. Wash plates 4× with PBS-TWEEN.
10. Add 100 μl HPP-linked Ig (1:5,000) in PBS-TWEEN containing 0.5% BSA, 0.025% Non-fat milk powder, 100 μM sodium orthovanadate. Incubate with shaking at room temperature for one hour.
11. Wash plates 4× with PBS-TWEEN and then once with PBS.
12. Develop plate using ABTS or other peroxidase substrate.

MET = molecular target: T2, MET (Homo sapiens, UniProt P08581); assay: MET transphosphorylation assay; assay type: biochemical; conditions: GST fusion protein containing the Met kinase domain, poly(glu-tyr) substrate
T2 construct: Purified GST fusion protein containing the Met kinase domain, SUGEN, Inc
T2 sequence (P08581 1078-1345 limits assumed): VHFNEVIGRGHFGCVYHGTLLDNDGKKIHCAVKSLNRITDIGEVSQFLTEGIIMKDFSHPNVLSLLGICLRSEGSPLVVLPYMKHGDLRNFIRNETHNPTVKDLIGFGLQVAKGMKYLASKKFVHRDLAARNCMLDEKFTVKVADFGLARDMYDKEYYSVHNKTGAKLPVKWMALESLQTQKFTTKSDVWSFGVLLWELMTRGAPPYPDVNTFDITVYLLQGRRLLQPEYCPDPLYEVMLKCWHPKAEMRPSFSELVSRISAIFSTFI
Procedure: MET TRANSPHOSPHORYLATION ASSAY
This assay is used to measure phosphotyrosine levels on a poly(glutamic acid:tyrosine, 4:1) substrate as a means for identifying agonists/antagonists of met transphosphorylation of the substrate.
1. Corning 96-well ELISA plates, Corning Catalog #25805-96.
2. Poly(glu-tyr), 4:1, Sigma, Cat. No; P 0275.
5. Blocking Buffer: Dissolve 25 g Bovine Serum Albumin, Sigma Cat. No A-7888, in 500 ml PBS, filter through a […] filter.
6. Purified GST fusion protein containing the Met kinase domain, SUGEN, Inc.
8. 10% aqueous (MilliQue H2O) DMSO.
9. 10 mM aqueous (dH2O) Adenosine-5′-triphosphate, Sigma Cat. No. A-5394.
10. 2×Kinase Dilution Buffer: for 100 ml, mix 10 mL 1M HEPES at pH 7.5 with 0.4 mL 5% BSA/PBS, 0.2 mL 0.1 M sodium orthovanadate and 1 mL 5M sodium chloride in 88.4 mL dH2O.
11. 4×ATP Reaction Mixture: for 10 mL, mix 0.4 mL 1 M manganese chloride and 0.02 mL 0.1 M ATP in 9.56 mL dH2O.
12. 4×Negative Controls Mixture: for 10 mL, mix 0.4 mL 1 M manganese chloride in 9.6 mL dH2O.
13. NUNC 96-well V bottom polypropylene plates, Applied Scientific Catalog #S-72092
15. Antibody Dilution Buffer: for 100 mL, mix 10 mL 5% BSA/PBS, 0.5 mL 5% Carnation® Instant Milk in PBS and 0.1 mL 0.1 M sodium orthovanadate in 88.4 mL TBST.
16. Rabbit polyclonal antophosphotyrosine antibody, SUGEN, Inc.
17. Goat anti-rabbit horseradish peroxidase conjugated antibody, Biosource, Inc.
18. ABTS Solution: for 1 L, mix 19.21 g citric acid, 35.49 g Na2HPO4 and 500 mg ABTS with sufficient dH2O to make 1 L.
19. ABTS/H2O2: mix 15 mL ABST solution with 2μL H2O2 five minutes before use.
1. Coat ELISA plates with 2 μg Poly(Glu-Tyr) in 100 μL PBS, hold overnight at 4° C.
2. Block plate with 150 μL of 5% BSA/PBS for 60 min.
3. Wash plate twice with PBS then once with 50 mM Hepes buffer pH 7.4.
4. Add 50 μl of the diluted kinase to all wells. (Purified kinase is diluted with Kinase Dilution Buffer. Final concentration should be 10 ng/well.)
5. Add 25 μL of the test compound (in 4% DMSO) or DMSO alone (4% in dH2O) for controls to plate.
6. Incubate the kinase/compound mixture for 15 minutes.
7. Add 25 μL of 40 mM MnCl2 to the negative control wells.
8. Add 25 μL ATP/MnCl2 mixture to the all other wells (except the negative controls). Incubate for 5 min.
9. Add 25 μL 500 mM EDTA to stop reaction.
10. Wash plate 3× with TBST.
11. Add 100 μL rabbit polyclonal anti-Ptyr diluted 1:10,000 in Antibody Dilution Buffer to each well. Incubate, with shaking, at room temperature for one hour.
12. Wash plate 3× with TBST.
13. Dilute Biosource HRP conjugated anti-rabbit antibody 1:6,000 in Antibody Dilution buffer. Add 100 μL per well and incubate at room temperature, with shaking, for one hour.
14. Wash plate 1× with PBS.
15. Add 100 μl of ABTS/H2O2 solution to each well.
16. If necessary, stop the development reaction with the addition of 100 μl of 0.2M HCl per well.
17. Read plate on Dynatech MR7000 ELISA reader with the test filter at 410 nM and the reference filter at 630 nM.

T1 sequence (P12931 whole entry): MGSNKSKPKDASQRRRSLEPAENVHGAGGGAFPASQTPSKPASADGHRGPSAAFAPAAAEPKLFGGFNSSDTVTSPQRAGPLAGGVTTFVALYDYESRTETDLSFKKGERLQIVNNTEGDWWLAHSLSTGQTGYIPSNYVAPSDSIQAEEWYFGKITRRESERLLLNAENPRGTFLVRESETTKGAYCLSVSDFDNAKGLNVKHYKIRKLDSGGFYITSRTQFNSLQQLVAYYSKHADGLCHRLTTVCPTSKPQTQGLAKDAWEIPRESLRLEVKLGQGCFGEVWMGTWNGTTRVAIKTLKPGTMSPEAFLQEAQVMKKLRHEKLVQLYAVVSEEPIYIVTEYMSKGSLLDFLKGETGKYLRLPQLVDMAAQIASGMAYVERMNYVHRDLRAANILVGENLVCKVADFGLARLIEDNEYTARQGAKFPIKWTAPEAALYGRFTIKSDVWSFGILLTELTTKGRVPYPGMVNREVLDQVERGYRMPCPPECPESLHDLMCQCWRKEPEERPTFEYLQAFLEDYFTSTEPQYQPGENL

pIC50 (SRC)	pIC50 (MET)	SMILES
5.99	7.11	CCN(CC)CCNC(=O)c1c(C)[nH]c(/C=C2\C(=O)Nc3cccc(-c4ccccc4)c32)c1C [Example 3, 2,4-Dimethyl-5-(2-oxo-4-phenyl-1,2-dihydro-indol-3-ylidenemethyl)-1H-pyrrole-3-carboxylic Acid (2-Diethylamino-ethyl)-amide]
< 4.70	6.15	Cc1[nH]c(/C=C2\C(=O)Nc3cccc(-c4ccc(F)cc4)c32)c(C)c1C(=O)N1CCN(C)CC1 [Example 4, 3-[3,5-Dimethyl-4-(4-methyl-piperazine-1-carbonyl)-1H-pyrrol-2-ylmethylene]-4-(4-fluoro-phenyl)-1,3-dihydro-indol-2-one]
5.31	7.14	Cc1[nH]c(/C=C2\C(=O)Nc3cccc(-c4ccc(F)cc4)c32)c(C)c1C(=O)NCCN1CCCC1 [Example 6, 5-[4-(4-Fluoro-phenyl)-2-oxo-1,2-dihydro-indol-3-ylidenemethyl]-2,4-dimethyl-1H-pyrrole-3-carboxylic Acid (2-Pyrrolidin-1-yl-ethyl)-amide]
5.74	6.64	Cc1cc(C(=O)N2CC[C@H](N(C)C)C2)c(/C=C2\C(=O)Nc3cccc(-c4ccc(F)cc4)c32)[nH]1 [Example 10, 3-[3-((S)-3-Dimethylamino-pyrrolidine-1-carbonyl)-5-methyl-1H-pyrrol-2-ylmethylene]-4-(4-fluoro-phenyl)-1,3-dihydro-indol-2-one]
5.98	7.00	CCN(CC)CCNC(=O)c1c(C)[nH]c(/C=C2\C(=O)Nc3cccc(-c4cccc(F)c4)c32)c1C [Example 13, 5-[4-(3-Fluoro-phenyl)-2-oxo-1,2-dihydro-indol-3-ylidenemethyl]-2,4-dimethyl-1H-pyrrole-3-carboxylic Acid (2-Diethylamino-ethyl)-amide]
5.64	6.43	Cc1[nH]c(/C=C2\C(=O)Nc3cccc(-c4cccc(F)c4)c32)c(C)c1C(=O)NCCn1ccnn1 [Example 15, 5-[4-(3-Fluoro-phenyl)-2-oxo-1,2-dihydro-indol-3-ylidenemethyl]-2,4-dimethyl-1H-pyrrole-3-carboxylic Acid (2-[1,2,3]Triazol-1-yl-ethyl)-amide]
5.11	6.57	CCOC(=O)c1c(C)[nH]c(/C=C2\C(=O)Nc3cccc(-c4cccc(F)c4)c32)c1CCCN1CCN(C)CC1 [Example 18, 5-[4-(3-Fluoro-phenyl)-2-oxo-1,2-dihydro-indol-3-ylidenemethyl]-2-methyl-4-[3-(4-methyl-piperazin-1-yl)-propyl]-1H-pyrrole-3-carboxylic Acid Ethyl Ester]
4.98	6.28	Cc1[nH]c(/C=C2\C(=O)Nc3cccc(-c4ccc(Cl)cc4)c32)c(C)c1C(=O)N1CCN(C)CC1 [Example 20, 4-(4-Chloro-phenyl)-3-[3,5-dimethyl-4-(4-methyl-piperazine-1-carbonyl)-1H-pyrrol-2-ylmethylene]-1,3-dihydro-indol-2-one]
5.80	6.85	Cc1[nH]c(/C=C2\C(=O)Nc3cccc(-c4ccc(Cl)cc4)c32)c(C)c1C(=O)NCCN1CCCC1 [Example 22, 5-[4-(4-Chloro-phenyl)-2-oxo-1,2-dihydro-indol-3-ylidenemethyl]-2,4-dimethyl-1H-pyrrole-3-carboxylic Acid (2-Pyrrolidin-1-yl-ethyl)-amide]
5.01	6.96	Cc1cc(C(=O)N2CC[C@@H](N(C)C)C2)c(/C=C2\C(=O)Nc3cccc(-c4ccc(Cl)cc4)c32)[nH]1 [Example 25, 4-(4-Chloro-phenyl)-3-[3-((R)-3-dimethylamino-pyrrolidine-1-carbonyl)-5-methyl-1H-pyrrol-2-ylmethylene]-1,3-dihydro-indol-2-one]
4.86	6.82	Cc1cc(C(=O)N2C[C@@H](C)N[C@@H](C)C2)c(/C=C2\C(=O)Nc3cccc(-c4ccc(Cl)cc4)c32)[nH]1 [Example 27]
5.90	7.19	CCN(CC)CCNC(=O)c1c(C)[nH]c(/C=C2\C(=O)Nc3cccc(-c4cccc(Cl)c4)c32)c1C [Example 29, 5-[4-(3-Chloro-phenyl)-2-oxo-1,2-dihydro-indol-3-ylidenemethyl]-2,4-dimethyl-1H-pyrrole-3-carboxylic Acid (2-Diethylamino-ethyl)-amide]
5.27	6.92	Cc1cc(C(=O)N2CC[C@H](N(C)C)C2)c(/C=C2\C(=O)Nc3cccc(-c4cccc(Cl)c4)c32)[nH]1 [Example 32, 4-(3-Chloro-phenyl)-3-[3-((S)-3-dimethylamino-pyrrolidine-1-carbonyl)-5-methyl-1H-pyrrol-2-ylmethylene]-1,3-dihydro-indol-2-one]
5.14	6.89	Cc1cc(C(=O)NCCn2ccnn2)c(/C=C2\C(=O)Nc3cccc(-c4cccc(Cl)c4)c32)[nH]1 [Example 34, 2-[4-(3-Chloro-phenyl)-2-oxo-1,2-dihydro-indol-3-ylidenemethyl]-5-methyl-1H-pyrrole-3-carboxylic Acid (2-[1,2,3]Triazol-1-yl-ethyl)-amide]
5.01	6.47	Cc1cc(C(=O)N2C[C@@H](C)N[C@@H](C)C2)c(/C=C2\C(=O)Nc3cccc(-c4cccc(Cl)c4)c32)[nH]1 [Example 35, 4-(3-Chloro-phenyl)-3-[3-((cis)-3,5-dimethyl-piperazine-1-carbonyl)-5-methyl-1H-pyrrol-2-ylmethylene]-1,3-dihydro-indol-2-one]
